The values that follow come from paper PMC3688284 (ACS chemical biology, 2011).

One may read the IC50 as the concentration at which inhibition is half-maximal. What is called EC50 is the concentration giving half of the maximal effect.

The structures appear in SMILES notation. Where only a bound is given, the exact number is not on record here.

Data set [1] concerns the target mouse LRRK2 (mouse kidney lysate) (Mus musculus, UniProt Q5S006). Nature of the data set: Competition-binding assay with la-S7 matrix. To be noted: concentrations as high as 100 μM tested; 5 mg/mL protein.
For data set [2], the target named is LRRK2 (human K562 extracts) (Homo sapiens, UniProt Q5S007). Nature of the data set: la-S7 binding assay in human K562 extracts. To be noted: concentrations as high as 100 μM tested; 5 mg/mL protein.
Another data set deals with G2019S LRRK2 (Homo sapiens, UniProt Q5S007, G2019S). Nature of the data set: TR-FRET-based kinase activity assay, G2019S LRRK2. To be noted: read-out: IC50, G2019S LRRK2 activity, ATP 100 μM. Format: biochemical. On the technique in general: TR-FRET usually uses a lanthanide donor and a delayed reading to cut background.
In data set [3] the test system is rat primary cortical neurons transfected with LRRK2 G2019S. It is filed as cell-based.
In data set [4] the test system is rat primary cortical neurons transfected with LRRK2 R1441C. It is filed as cell-based. As to conditions: at higher concentrations.
The nature of another data set: Pharmacokinetics studies. As to conditions: in vivo.
Data set [5] has as its system LRRK2 G2019S-transfected human cortical neurons. Nature of the data set: Neurite morphology assay in primary human cortical neurons. As to conditions: for EC50: read-out: EC50, attenuation of G2019S LRRK2-induced human neuronal injury.
In a further data set the test system is human cortical neurons. Nature of the data set: AlamarBlue cytotoxicity assay in primary human cortical neurons. To be noted: for Concentration at which overt cytotoxicity was seen: human cortical neurons. It is filed as cell-based. A general note: Alamar Blue is a resazurin reagent that responds to reducing activity.
The target in data set [6] is recombinant human wild type LRRK2 (Homo sapiens, UniProt Q5S007). Nature of the data set: TR-FRET-based kinase activity assay, wild type LRRK2. Format: biochemical. To be noted: read-out: IC50, human wild type LRRK2 activity, ATP 100 μM.
recombinant human wild type LRRK2, sequence (Q5S007 whole entry): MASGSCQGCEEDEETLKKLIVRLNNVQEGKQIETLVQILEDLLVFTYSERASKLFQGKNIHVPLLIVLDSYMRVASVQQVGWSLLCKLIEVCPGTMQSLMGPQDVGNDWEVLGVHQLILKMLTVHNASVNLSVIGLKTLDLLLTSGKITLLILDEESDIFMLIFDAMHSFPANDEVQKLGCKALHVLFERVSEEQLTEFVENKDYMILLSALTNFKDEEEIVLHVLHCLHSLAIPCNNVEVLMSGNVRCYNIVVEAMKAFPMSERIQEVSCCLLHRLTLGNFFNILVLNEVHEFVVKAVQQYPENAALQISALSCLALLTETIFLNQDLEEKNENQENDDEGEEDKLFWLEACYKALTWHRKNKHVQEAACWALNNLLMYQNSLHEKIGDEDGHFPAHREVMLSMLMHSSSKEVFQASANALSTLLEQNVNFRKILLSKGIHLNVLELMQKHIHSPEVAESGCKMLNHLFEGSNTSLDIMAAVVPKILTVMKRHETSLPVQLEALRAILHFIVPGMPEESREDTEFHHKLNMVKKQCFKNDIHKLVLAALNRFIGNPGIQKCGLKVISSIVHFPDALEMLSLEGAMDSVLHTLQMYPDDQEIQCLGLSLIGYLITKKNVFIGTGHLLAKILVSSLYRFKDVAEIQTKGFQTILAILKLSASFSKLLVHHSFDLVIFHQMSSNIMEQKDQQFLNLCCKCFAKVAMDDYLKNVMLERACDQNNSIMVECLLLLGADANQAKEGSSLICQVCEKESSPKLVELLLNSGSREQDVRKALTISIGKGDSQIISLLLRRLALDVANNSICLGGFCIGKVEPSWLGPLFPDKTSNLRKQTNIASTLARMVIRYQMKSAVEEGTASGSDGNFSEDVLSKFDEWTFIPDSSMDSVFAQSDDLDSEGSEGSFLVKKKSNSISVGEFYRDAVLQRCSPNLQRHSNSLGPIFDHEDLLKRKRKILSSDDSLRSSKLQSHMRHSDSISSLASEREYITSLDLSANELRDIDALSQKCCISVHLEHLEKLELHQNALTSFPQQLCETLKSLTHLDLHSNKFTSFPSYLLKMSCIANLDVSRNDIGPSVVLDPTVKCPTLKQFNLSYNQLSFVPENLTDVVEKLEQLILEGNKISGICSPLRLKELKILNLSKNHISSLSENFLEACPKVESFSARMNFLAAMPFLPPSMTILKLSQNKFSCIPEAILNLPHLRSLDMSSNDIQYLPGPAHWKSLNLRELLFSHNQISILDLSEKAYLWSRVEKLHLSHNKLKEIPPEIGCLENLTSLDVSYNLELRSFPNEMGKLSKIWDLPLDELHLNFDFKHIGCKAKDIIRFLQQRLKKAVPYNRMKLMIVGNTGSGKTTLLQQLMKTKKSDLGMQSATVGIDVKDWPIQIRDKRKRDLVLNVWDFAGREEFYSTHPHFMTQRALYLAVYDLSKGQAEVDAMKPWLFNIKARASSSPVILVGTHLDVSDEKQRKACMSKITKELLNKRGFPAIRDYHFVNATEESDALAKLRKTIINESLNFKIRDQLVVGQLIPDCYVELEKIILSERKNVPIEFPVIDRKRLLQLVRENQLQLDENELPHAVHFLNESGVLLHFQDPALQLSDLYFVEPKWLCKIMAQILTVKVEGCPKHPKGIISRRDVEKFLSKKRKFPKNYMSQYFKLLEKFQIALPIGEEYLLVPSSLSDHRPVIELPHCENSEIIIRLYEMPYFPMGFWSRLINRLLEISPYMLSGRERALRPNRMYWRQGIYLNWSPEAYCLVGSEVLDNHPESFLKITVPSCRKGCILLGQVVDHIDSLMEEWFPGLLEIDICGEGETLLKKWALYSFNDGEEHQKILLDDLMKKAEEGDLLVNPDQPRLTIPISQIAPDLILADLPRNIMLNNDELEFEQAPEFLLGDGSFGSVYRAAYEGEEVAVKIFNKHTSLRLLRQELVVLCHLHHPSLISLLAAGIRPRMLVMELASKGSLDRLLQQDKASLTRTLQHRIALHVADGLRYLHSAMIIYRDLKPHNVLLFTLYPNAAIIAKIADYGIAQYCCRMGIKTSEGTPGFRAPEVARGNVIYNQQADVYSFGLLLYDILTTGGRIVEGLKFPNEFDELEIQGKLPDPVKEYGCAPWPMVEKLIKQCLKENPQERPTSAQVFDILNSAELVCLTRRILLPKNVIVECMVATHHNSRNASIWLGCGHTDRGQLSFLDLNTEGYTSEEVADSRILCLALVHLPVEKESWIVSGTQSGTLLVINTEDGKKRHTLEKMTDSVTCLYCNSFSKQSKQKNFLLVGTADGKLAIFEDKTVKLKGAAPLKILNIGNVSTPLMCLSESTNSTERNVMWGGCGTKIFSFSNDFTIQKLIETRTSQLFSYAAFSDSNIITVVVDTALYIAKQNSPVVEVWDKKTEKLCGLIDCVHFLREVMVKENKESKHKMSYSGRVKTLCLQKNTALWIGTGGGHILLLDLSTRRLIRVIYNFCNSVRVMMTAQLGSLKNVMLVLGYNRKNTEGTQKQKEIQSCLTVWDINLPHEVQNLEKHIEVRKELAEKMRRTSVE

G2019S LRRK2, sequence (Q5S007 whole entry G2019S): as the sequence (Q5S007 whole entry) above, with G2019S counted along it
mouse LRRK2 (mouse kidney lysate), sequence (Q5S006 1879-2146 limits assumed): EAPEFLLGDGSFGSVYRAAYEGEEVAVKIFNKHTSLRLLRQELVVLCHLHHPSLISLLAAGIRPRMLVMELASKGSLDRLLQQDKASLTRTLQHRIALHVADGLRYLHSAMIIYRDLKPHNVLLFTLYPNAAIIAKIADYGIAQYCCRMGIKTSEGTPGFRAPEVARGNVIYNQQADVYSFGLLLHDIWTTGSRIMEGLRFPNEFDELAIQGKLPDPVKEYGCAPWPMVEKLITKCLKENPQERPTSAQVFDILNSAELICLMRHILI
LRRK2 (human K562 extracts), sequence (Q5S007 whole entry): as the sequence (Q5S007 whole entry) above

For the compound `O=C1Nc2ccc(I)cc2/C1=C/c1cc(Br)c(O)c(Br)c1` [GW-5074], in data set [1], the “IC50 in la-S7 binding assay, mouse kidney extracts” value was “no valid IC50s”. The “IC50 in la-S7 binding assay, human K562 extracts” value in data set [2] is recorded as “no valid IC50s”.
Take `COc1cc(N2CCOCC2)ccc1Nc1ncc(F)c(Nc2ccccc2NS(C)(=O)=O)n1` [CZC-25146]: at G2019S LRRK2, the half-maximal inhibitory concentration (IC50) stood at 6.87 nM. Further, the “Block of G2019S LRRK2-induced toxicity” value in data set [3] (at higher concentrations) is “completely blocked”. The EC50 in data set [3] (read-out: EC50, attenuation of G2019S LRRK2-induced neuronal injury and death, primary rodent cortical neurons) is about 100 nM. Further, the “Block of R1441C-induced toxicity” value in data set [4] is given as “completely blocked”. Besides, in the data set “Pharmacokinetics studies”, the Brain penetration is recorded as ~ 4%, the Clearance amounted to 2.3 L/h/kg and the Volume of distribution is 5.4 L/kg. In data set [5], the “Concentration fully reversing G2019S LRRK2-induced injury to wild-type levels” value worked out at 8 nM and the EC50 is about 4 nM. Further, the “Concentration at which overt cytotoxicity was seen” value in the data set on human cortical neurons turned out to be 5 µM. Also, the “Concentrations at which no cytotoxicity was caused” value in the data set with human cortical neurons (seven-day treatment in culture) was “below 5 μM”. For the same compound, in data set [6], the IC50 was found to be 4.76 nM.
`COc1cc(N2CCOCC2)ccc1Nc1ncc(Cl)c(Nc2ccccc2NS(C)(=O)=O)n1` [CZC-54252]: at G2019S LRRK2, the IC50 came to 1.85 nM. Further, the Brain penetration in “Pharmacokinetics studies” is listed as ~ 4%. Moreover, in data set [5], the “Concentration fully reversing G2019S LRRK2-induced injury to wild-type levels” value worked out at 1.6 nM and the EC50 was about 1 nM. The “Concentration at which overt cytotoxicity was seen” value in the data set with human cortical neurons was at least 1 µM. In data set [6], the IC50 turned out to be 1.28 nM.
